# Columns and labels:
# [1] = test system: platelet aggregation induced by TXA2 agonist U-46619; assay: Platelet Aggregation-inhibition Action 1 (U-46619-induced, platelet-rich plasma); format: cell-based; conditions: U-46619 1-4 μM final, PRP, compound added one minute before U-46619
# Description: Platelet Aggregation-inhibition Action 1
# (§1) Blood collected from medial cubital vein is centrifuged at 800 rmp for 10 minutes and the upper portion of the resultant is collected as platelet-rich plasma (PRP). The PRP is dividedly poured into small test tubes and a TXA2 agonist U-46619 is added thereto (final concentration: 1-4 μM) so as to induce platelet aggregation. The degree of platelet aggregation is measured in terms of change in turbidity by a platelet aggregation measuring apparatus (Hematoracer, NIKO BIOSCIENCE). The compound is added one minute before the addition of U-46619 and the concentration of the compound at which the aggregation is inhibited by 50% is calculated as IC50 value.
# [2] = test system: platelet aggregation induced by ADP; assay: Platelet Aggregation-Inhibition Action 2 (ADP-induced, platelet-rich plasma); format: cell-based; conditions: ADP 1-3 μM final, PRP, compound added one minute before ADP
# Description: Platelet Aggregation-Inhibition Action 2
# as §1, with “PRP).” for “(PRP).”, “ADP” for “a TXA2 agonist U-46619”, “1-3” for “1-4”, “Hematoracer,” for “(Hematoracer,”, “ADP” for “U-46619 and”
# [3] = molecular target: T1, TXA2 receptor (Oryctolagus cuniculus, UniProt Q6WQI8); assay: TXA2 Receptor Binding Test 1 ([3H]SQ29548, washed rabbit platelets); set-up: species or system New Zealand White rabbit; conditions: [3H]SQ29548 3 nM, rabbit washed platelets 10 mg/ml, 25° C., 60 minutes
# T1 sequence (Q6WQI8 1-233): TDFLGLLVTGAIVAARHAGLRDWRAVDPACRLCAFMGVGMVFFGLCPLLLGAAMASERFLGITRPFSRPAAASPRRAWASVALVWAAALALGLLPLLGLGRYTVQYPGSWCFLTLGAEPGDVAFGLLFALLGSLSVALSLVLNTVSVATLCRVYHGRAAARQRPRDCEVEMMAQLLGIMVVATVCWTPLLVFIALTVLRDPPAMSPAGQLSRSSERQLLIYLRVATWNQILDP
# Description: TXA2 Receptor Binding Test 1
# Blood from a New Zealand White rabbit is taken in a vessel containing ACD solution (prepared by dissolving 1.175 g of sodium citrate, 0.685 g of citric acid and 1 g of dextrose in 50 ml of distilled water) and centrifuged at 180×g for 10 minutes at room temperature to obtain platelet-rich plasma. The obtained platelet-rich plasma is centrifuged at […] at room temperature to precipitate platelets. The platelets are then suspended in 50 mM Tris-HCl buffer (pH 7.2, containing 0.154M of NaCl) and the suspension is centrifuged at 2800×g for 15 minutes at 4° C. These operations are repeated twice to prepare washed platelets and the concentration of the platelets are adjusted to a final concentration of 10 mg/ml (wet weight).
# As the ligand of TXA2, tritium-labelled SQ29548 ([^3 H]SQ29548) is used. In the antagonism test, 20 μl of [^3 H]SQ29548 having a final concentration of 3 nM is added to 500 μl of a platelet suspension having a platelet concentration of 10 mg/ml and 2.6 μl of a solution of a test compound dissolved in an appropriate solvent is added thereto. After incubating the resulting mixture at 25° C. for 60 minutes, the mixture is filtered through a glass filter by the cell harvester method. After washing the filter with 50 mM Tris-HCl buffer (3×4 ml), the radioactivity of the filter is measured by a scintillation counter, thereby measuring the amount of the [^3 H]SQ29548 bound to platelets. In the saturation test, 20 μl of [^3 H]SQ29548 is added to a final concentration of 0.1-50 nM and 2.6 μl of BM13505 having a final concentration of 1 μM is added so as to check non-specific binding, followed by carrying out the binding test. The concentration of the test compound at which binding of [^3 H]SQ29548 is inhibited by 50% is determined as the IC50 value.
# The results of the evaluation of the activities of the compounds of the present invention by this method are summarized d in Table 3.
# [4] = molecular target: T2, PGI2 receptor (Homo sapiens, UniProt P43119); assay: PGI2 Receptor Binding Test ([3H]APS-314d, platelet membrane fraction); conditions: platelet membrane fraction 0.1 mg protein/ml, 4° C., 60 minutes, Ki=IC50/[1+(radioactive ligand concentration/Kd)]
# T2 construct: platelet membrane fraction having a concentration of 0.1 mg protein/ml; endogenous in cells
# Description: PGI2 Receptor Binding Test
# As the ligand of PGI2 receptor, tritium-labelled (1R,2R,3aS,8bS)-2,3,3a,8-tetrahydro-2-hydroxy-1-[(E)-(3S,4S)-3-hydroxy-4-methyl-1-octene-6-ynyl]-1H-cyclopenta[b]benzofuran-5-butanoic acid ([^3 H]APS-314d) was used. The saturation test was carried out by reacting [^3 H]APS-314d (100 μl) having a final concentration of 3-100 nM with a suspension (100 μl) of platelet membrane fraction having a concentration of 0.1 mg protein/ml at 4° C. for 60 minutes under shaking. The competition test was carried out by mixing a mixture (100 μl) of a test compound dissolved in an appropriate solvent and then diluted and [^3 H]APS-314d, and the suspension of platelet membrane fraction (100 μl) having a concentration of 0.1 mg protein/ml, and allowing the mixture to react at 4° C. for 60 minutes under shaking. After the reaction, the resultant was filtered through a glass filter using a cell harvester to collect the membrane fraction on the glass filter. The filter was washed with a iced buffer and radioactivity was measured by scintillation counter. The non-specific binding to substances other than the platelets was measured by the reaction in the presence of sodium beraprost having a final concentration of 10 nM. The IC50 value of the test compound and Hill coefficient in the binding test was determined by Pseudo-Hill plot. The receptor dissociation constant (Ki value) was calculated according to the following equation from the IC50 value and the receptor dissociation constant (Kd value) of [^3 H]APS-314d determined in the saturation test.
# Ki=IC50 /[1+(radioactive ligand concentration/Kd)]
# [5] = molecular target: T3, TXA2 receptor (Homo sapiens, UniProt P21731); assay: TXA2 Receptor Binding Test 2 ([3H]SQ29548, human platelet membrane fraction); conditions: 25° C., 30 minutes, pH 7.4, Ki=IC50/[1+(radioactive ligand concentration/Kd)]
# T3 construct: the finally obtained precipitate was collected as the platelet membrane fraction; endogenous in cells; host or cells: membrane fraction of human platelets
# T3 sequence (P21731 1-343): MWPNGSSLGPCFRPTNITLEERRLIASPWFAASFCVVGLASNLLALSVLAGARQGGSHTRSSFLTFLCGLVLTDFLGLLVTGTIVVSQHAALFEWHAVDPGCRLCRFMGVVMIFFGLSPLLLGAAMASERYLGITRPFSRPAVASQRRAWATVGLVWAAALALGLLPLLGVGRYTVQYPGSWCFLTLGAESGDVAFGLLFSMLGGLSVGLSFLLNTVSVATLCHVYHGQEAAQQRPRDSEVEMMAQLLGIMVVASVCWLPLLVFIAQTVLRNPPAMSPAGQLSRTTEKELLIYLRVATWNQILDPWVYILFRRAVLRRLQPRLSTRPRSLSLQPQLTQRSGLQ
# Description: TXA2 Receptor Binding Test 2
# Blood collected from human forearm vein and ACD solution (85 mM trisodium citrate, 65 mM citric acid, 2% glucose) in an amount of 1/10 volume of the blood were mixed the resultant was dividedly poured into Spitz tubes an amount of 8 ml/tube. The mixture was centrifuged at 200×g for 10 minutes at room temperature to obtain platelet-rich plasma and the obtained platelet-rich plasma was centrifuged at 1000×g for 15 minutes to obtain platelets. The platelets were washed by centrifugation using a washing buffer (115 mM sodium chloride, 4.3 mM potassium dihydrogen phosphate, 5.5 mM glucose, 1 mM disodium EDTA, 10 μM indomethacin, pH 6.5) and 1 ml of a melting buffer (10 mM Tris(hydroxymethyl)aminomethane, 5 mM magnesium chloride, 2 mM disodium EDTA, pH 7.4) was added. The resultant was frozen in liquid nitrogen and thawed at room temperature. By repeating freezing in liquid nitrogen and thawing totally three times, the platelets were ruptured. The resultant was washed three times by ultracentrifugation (40,000×g, each 20 minutes) using iced 5 mM Tris-HCl buffer, and the finally obtained precipitate was collected as the platelet membrane fraction.
# As the ligand of TXA2, tritium-labelled SQ29548 ([^3 H]SQ29548) was used. As the solvent for the receptor binding reaction, 50 mM Tris-HCl buffer (5 mM magnesium chloride, pH 7.4) was used. […] The filter was washed with a iced buffer and radioactivity was measured by scintillation counter. The non-specific binding to substances other than the platelets was measured by the reaction in the presence of SQ29548 having a final concentration of […]. The IC50 value of the test compound and Hill coefficient in the binding test was determined by Pseudo-Hill plot. The receptor dissociation constant (Ki value) was calculated according to the following equation from the IC50 value and the receptor dissociation constant (Kd value) of [^3 H]SQ29548 determined in the saturation test. […]
# T2 sequence (P43119 whole entry): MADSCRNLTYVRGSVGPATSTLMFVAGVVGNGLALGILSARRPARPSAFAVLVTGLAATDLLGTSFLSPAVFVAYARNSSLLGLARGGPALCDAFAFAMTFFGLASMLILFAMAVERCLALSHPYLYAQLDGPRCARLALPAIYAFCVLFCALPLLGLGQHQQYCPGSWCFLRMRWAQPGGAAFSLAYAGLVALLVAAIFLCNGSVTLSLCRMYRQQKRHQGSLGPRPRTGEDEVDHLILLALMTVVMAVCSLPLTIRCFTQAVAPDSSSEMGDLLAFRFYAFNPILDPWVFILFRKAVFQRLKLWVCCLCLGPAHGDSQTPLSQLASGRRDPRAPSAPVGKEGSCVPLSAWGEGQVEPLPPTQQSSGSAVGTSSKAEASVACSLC
Compound,IC50 [1],IC50 [2],IC50 [3],Ki [4],Ki [5]
"Cc1oc2c(OCC(=O)O)cccc2c1CNS(=O)(=O)Cc1ccccc1 [Example 15, Methyl (3-((benzylsulfonylamino)methyl)-2-methylbenzofuran-7-yloxy)acetic acid]",1000 nM,201 µM,1100 nM,,
O=C(O)COc1cccc2c(CCSC(c3ccccc3)c3ccccc3)coc12 [Example 68],900 nM,6.2 µM,,410 nM,
"COC(=O)COc1cccc2c(CCSC(c3ccccc3)c3ccccc3)coc12 [Example 67, Methyl (3-(2-(diphenylmethylthio)ethyl)benzofuran-7-yloxy)acetate]",,,,,0.31 µM
"Cc1oc2c(OCC(=O)O)cccc2c1CNS(=O)(=O)CCc1ccccc1 [Example 16, (3-(((2-phenylethyl)sulfonylamino)methyl)-2-methylbenzofuran-7-yloxy)aceticacid]",500 nM,403 µM,54.5 nM,,
"Cc1oc2c(OCC(=O)O)cccc2c1CCSCCc1ccccc1 [Example 31, (3-(2-(2-phenylethylthio)ethyl)-2-methylbenzofuran-7-yloxy)acetic acid]",440 nM,265 µM,51.3 nM,,

# Other lines, results leading:
IC50 [1],IC50 [2],IC50 [3],Ki [4],Ki [5],Compound
4800 nM,7.8 µM,,380 nM,7.7 µM,"O=C(O)COc1cccc2c(COCCC(c3ccccc3)c3ccccc3)coc12 [Example 48, (3-((3,3-diphenylpropyloxy)methyl)benzofuran-7-yloxy)acetic acid]"
1700 nM,3.6 µM,,440 nM,3.6 µM,"O=C(O)COc1cccc2c1ccn2CCCC(c1ccccc1)c1ccccc1 [Example 118, (1-(4,4-diphenylbutyl)indole-4-yloxy)acetic acid]"
1100 nM,,91.9 nM,,,"Cc1oc2c(OCC(=O)O)cccc2c1CCS(=O)(=O)CCc1ccccc1 [Example 33, (3-(2-(2-phenylethylsulfonyl)ethyl)-2-methylbenzofuran-7-yloxy)acetic acid]"
